According to ChEMBL document CHEMBL4011637, “Synthesis of 8-Substituted Analogues of Cyclic ADP-4-Thioribose and Their Unexpected Identification as Ca2+-Mobilizing Full Agonists” (J Med Chem, 2017):
Active and inactive are the calls of the source. No cut-off for these calls is given here.

Key:
[1] = target: Ryanodine receptor (Hemicentrotus pulcherrimus) (UniProt Q8TA74); assay: Antagonist activity at ryanodine receptor in Hemicentrotus pulcherrimus egg homogenate assessed as decrease in intracellular calcium mobilization by Fluo-3 dye based fluorimetric assay; type: cell-based
[2] = target: Ryanodine receptor (Hemicentrotus pulcherrimus, UniProt Q8TA74); assay: (§1) Agonist activity at ryanodine receptor in Hemicentrotus pulcherrimus egg homogenate assessed as increase in intracellular calcium mobilization by Fluo-3 dye based fluorimetric assay; type: cell-based
[3] = species on record: Homo sapiens; assay: Agonist activity at ryanodine receptor (unknown origin) in neuronal cells assessed as increase in intracellular calcium mobilization by Fluo-3 dye based fluorimetric assay; type: cell-based
[4] = species on record: Homo sapiens; assay: Agonist activity at ryanodine receptor (unknown origin) in T cells assessed as increase in intracellular calcium mobilization by Fluo-3 dye based fluorimetric assay; type: cell-based
[5] = Dissociation constant, pKa of the compound; type: physicochemical
[6] = target: Ryanodine receptor (Hemicentrotus pulcherrimus) (UniProt Q8TA74); assay: as §1; type: cell-based

Row | SMILES | inhibition [1] | EC50 [2] | Activity [3] | Activity [4] | pKa [5] | Activity [6]
1 | Nc1nc2c(N)[n+]3cnc2n1[C@@H]1O[C@H](COP(=O)(O)OP(=O)([O-])OC[C@H]2S[C@@H]3[C@H](O)[C@@H]2O)[C@@H](O)[C@H]1O | inactive | 870 nM |  |  |  | 
2 | Nc1c2ncn3c2nc[n+]1[C@@H]1C[C@H](COP(=O)([O-])OP(=O)(O)OC[C@H]2O[C@@H]3[C@H](O)[C@@H]2O)[C@@H](O)[C@H]1O |  |  | Active | inactive | 9 | 
3 | Nc1c2nc(Cl)n3c2nc[n+]1[C@@H]1C[C@H](COP(=O)(O)OP(=O)([O-])OC[C@H]2O[C@@H]3[C@H](O)[C@@H]2O)[C@@H](O)[C@H]1O |  |  |  |  |  | Active
4 | Nc1c2ncn3c2nc[n+]1[C@@H]1O[C@H](COP(=O)([O-])OP(=O)(O)OC[C@H]2O[C@@H]3[C@H](O)[C@@H]2O)[C@@H](O)[C@H]1O |  | 210 nM |  | Active | 8.3 | Dose-dependent effect
5 | Nc1c2ncn3c2nc[n+]1[C@@H]1S[C@H](COP(=O)([O-])OP(=O)(O)OC[C@H]2O[C@@H]3[C@H](O)[C@@H]2O)[C@@H](O)[C@H]1O |  | 39 nM | Active | Active | 8 | 
6 | [N-]=[N+]=Nc1nc2c(N)[n+]3cnc2n1[C@@H]1O[C@H](COP(=O)(O)OP(=O)([O-])OC[C@H]2C[C@@H]3[C@H](O)[C@@H]2O)[C@@H](O)[C@H]1O |  |  |  |  |  | Active
7 | Nc1c2nc(Cl)n3c2nc[n+]1[C@@H]1S[C@H](COP(=O)([O-])OP(=O)(O)OC[C@H]2O[C@@H]3[C@H](O)[C@@H]2O)[C@@H](O)[C@H]1O | inactive | 12000 nM |  |  |  | 
8 | Nc1nc2c(N)[n+]3cnc2n1[C@@H]1O[C@H](COP(=O)([O-])OP(=O)(O)OC[C@H]2C[C@@H]3[C@H](O)[C@@H]2O)[C@@H](O)[C@H]1O |  |  |  |  |  | Active
9 | [N-]=[N+]=Nc1nc2c(N)[n+]3cnc2n1[C@@H]1O[C@H](COP(=O)(O)OP(=O)([O-])OC[C@H]2S[C@@H]3[C@H](O)[C@@H]2O)[C@@H](O)[C@H]1O |  | 37000 nM |  |  |  | 
